Experimental data taken from patent publication US20130165368A1, “ANTIMICROBIAL COMPOUNDS” (priority 2010, published 2013).

Tested on: MRSA NCTC 11939
Test: Synergy testing: disc susceptibility, zone of inhibition on agar containing Laureth derivative
Type: cell-based, Staphylococcus aureus
Experimental: There now follows data relating to a screen for synergistic interaction between Laureth derivatives [C12E1 to C12E8] and 12 conventional anti-staphylococcal agents.
Ethoxylated Lauryl Alcohol Derivative Preparation As plates containing quarter strength of the MIC of NCTC 11939 are needed, and therefore very small weights of each compound, they were prepared at twenty time strength in 20 mL volumes in plastic universals. Once prepared these solutions were diluted […] by adding 1 mL to 1 mL SDW, resulting a 2 mL volume at ten times strength. This was undertaken in duplicate to create two identical plates.
IST was prepared as previously stated in above. 18 mL agar was added to each universal and then poured into sterile Petri dishes. Control plates were prepared as stated above
A 0.5 McFarland suspension of MRSA NCTC 11939 was prepared using SDW. This was then adjusted to a concentration of 1.5×107 by adding 200 μL to 1.8 mL of SDW. Once diluted, a sterile cotton swab was used to spread the suspension evenly across the entire surface of each agar plate.
Twelve antibiotics discs were added to the plates, 6 per plate in a circle. The plates were then incubated aerobically at 37° C.
The diameter of the zones of clearance were measured and recorded in millimetres. The zones for each compound were compared to the control and to BSAC breakpoints.
A variation of zone size within 2 mm is within acceptable limits of assay reproducibility.

[1] = antibiotic disc in the presence of L1 [C12E1] 0.005 mmol/L
[2] = antibiotic disc in the presence of L2 [C12E2] 0.0275 mmol/L
[3] = antibiotic disc in the presence of L3 [C12E3] 0.01375 mmol/L
[4] = antibiotic disc in the presence of L4 [C12E4] 0.0275 mmol/L
[5] = antibiotic disc in the presence of L5 [C12E5] 0.0275 mmol/L
[6] = antibiotic disc in the presence of L6 [C12E6] 0.0275 mmol/L
[7] = antibiotic disc in the presence of L7 [C12E7] 0.0275 mmol/L
[8] = antibiotic disc in the presence of L8 [C12E8] 0.055 mmol/L
[9] = antibiotic disc, Control, 0 mmol/L Laureth derivative

Row | Molecule | Zone of Inhibition [1] | Zone of Inhibition [2] | Zone of Inhibition [3] | Zone of Inhibition [4] | Zone of Inhibition [5] | Zone of Inhibition [6] | Zone of Inhibition [7] | Zone of Inhibition [8] | Zone of Inhibition [9]
1 | O=C(N[C@H](CO)[C@H](O)c1ccc([N+](=O)[O-])cc1)C(Cl)Cl [Chloramphenicol] | 22 mm | 22 mm | 24 mm | 23 mm | 25 mm | 23 mm | 22 mm | 23 mm | 
2 | CCC[C@@H]1C[C@@H](C(=O)N[C@@H]([C@H]2O[C@H](SC)[C@H](O)[C@@H](O)[C@H]2O)[C@H](C)Cl)N(C)C1 [Clindamycin] | 33 mm | 32 mm | 32 mm | 34 mm | 33 mm | 33 mm | 34 mm | 35 mm | 
3 | CC[C@H]1OC(=O)[C@H](C)[C@@H](O[C@H]2C[C@@](C)(OC)[C@@H](O)[C@H](C)O2)[C@H](C)[C@@H](O[C@@H]2O[C@H](C)C[C@H](N(C)C)[C@H]2O)[C@](C)(O)C[C@@H](C)C(=O)[C@H](C)[C@@H](O)[C@]1(C)O [Erythromycin] | 7 mm | 7 mm | 7 mm | 8 mm | 7 mm | 7 mm | 7 mm | 8 mm | 
4 | CC(=O)O[C@H]1C[C@@]2(C)[C@@H](C[C@@H](O)[C@H]3[C@@]4(C)CC[C@@H](O)[C@@H](C)[C@@H]4CC[C@@]32C)/C1=C(\CCC=C(C)C)C(=O)O [Fusidic Acid] | 36 mm | 37 mm | 35 mm | 38 mm | 37 mm | 39 mm | 37 mm |  | 
5 | COc1c(N2C[C@@H]3CCCN[C@@H]3C2)c(F)cc2c(=O)c(C(=O)O)cn(C3CC3)c12 [Moxyfloxacin] | 14 mm | 14 mm | 16 mm | 14 mm | 13 mm | 14 mm | 18 mm |  | 15 mm
6 | C/C(=C\C(=O)OCCCCCCCCC(=O)O)C[C@@H]1OC[C@H](C[C@@H]2O[C@H]2[C@@H](C)[C@H](C)O)[C@@H](O)[C@H]1O [Muprocin] | 32 mm | 33 mm | 32 mm | 34 mm | 32 mm | 33 mm | 34 mm | 35 mm | 33 mm
7 | CO[C@H]1/C=C/O[C@@]2(C)Oc3c(C)c(O)c4c(O)c(c(/C=N/N5CCN(C)CC5)c(O)c4c3C2=O)NC(=O)/C(C)=C\C=C\[C@H](C)[C@H](O)[C@@H](C)[C@@H](O)[C@@H](C)[C@H](OC(C)=O)[C@@H]1C [Rifampicin] | 37 mm | 37 mm | 37 mm | 40 mm | 39 mm | 40 mm | 39 mm |  | 
8 | CN(C)[C@@H]1C(O)=C(C(N)=O)C(=O)[C@@]2(O)C(O)=C3C(=O)c4c(O)cccc4[C@@](C)(O)[C@H]3C[C@@H]12 [Tetracycline] | 34 mm | 35 mm | 35 mm | 36 mm | 32 mm | 35 mm | 36 mm |  | 
9 | COc1cc(Cc2cnc(N)nc2N)cc(OC)c1OC [Trimethoprim] | 29 mm | 30 mm | 28 mm | 31 mm | 30 mm | 31 mm | 30 mm |  | 
10 | CN[C@H](CC(C)C)C(=O)N[C@H]1C(=O)N[C@@H](CC(N)=O)C(=O)N[C@H]2C(=O)N[C@H]3C(=O)N[C@H](C(=O)N[C@H](C(=O)O)c4cc(O)cc(O)c4-c4cc3ccc4O)[C@H](O)c3ccc(c(Cl)c3)Oc3cc2cc(c3O[C@@H]2O[C@H](CO)[C@@H](O)[C@H](O)[C@H]2O[C@H]2C[C@](C)(N)[C@H](O)[C@H](C)O2)Oc2ccc(cc2Cl)[C@H]1O [Vancomycin] | 21 mm | 21 mm | 19 mm | 21 mm | 20 mm | 20 mm | 20 mm | 23 mm | 
11 | Gentamicin | 27 mm | 27 mm | 27 mm | 29 mm | 28 mm | 30 mm | 30 mm | 33 mm | 28 mm
